Laboratory results: ChEMBL document CHEMBL2401728, “An unexpected Dimroth rearrangement leading to annelated thieno[3,2-d][1,2,3]triazolo[1,5-a]pyrimidines with potent antitumor activity” (Eur J Med Chem, 2013)

What was measured:
Assay type in all cases: functional
[1] = Cytotoxicity against human EKVX cells assessed as cellular growth at 10 uM after 48 hrs by SRB assay relative to control
SN12C = experiment: Cytotoxicity against human SN12C cells after 48 hrs by SRB assay
MOLT-4 [2] = experiment: Cytotoxicity against human MOLT4 cells after 48 hrs by SRB assay; conditions: MOLT-4, 48 h
RXF 393 [3] = experiment: Cytotoxicity against human RXF393 cells assessed as cellular growth at 0.1 uM after 48 hrs by SRB assay relative to control
OVCAR-4 = experiment: Cytotoxicity against human OVCAR4 cells after 48 hrs by SRB assay; conditions: OVCAR-4, 48 h
IGROV-1 = experiment: Cytotoxicity against human IGROV1 cells after 48 hrs by SRB assay; conditions: IGROV-1, 48 h
KM12 = experiment: Cytotoxicity against human KM12 cells after 48 hrs by SRB assay; conditions: KM12, 48 h
HCT-116 = experiment: Cytotoxicity against human HCT116 cells assessed as cellular growth at 10 uM after 48 hrs by SRB assay relative to control
CCRF-CEM [4] = experiment: Cytotoxicity against human CCRF-CEM cells assessed as cellular growth at 1 uM after 48 hrs by SRB assay relative to control
SW-620 = experiment: Cytotoxicity against human SW620 cells after 48 hrs by SRB assay; conditions: SW-620, 48 h
UACC-257 = experiment: Cytotoxicity against human UACC257 cells after 48 hrs by SRB assay; conditions: UACC-257, 48 h
SK-OV-3 = experiment: Cytotoxicity against human SKOV3 cells assessed as cellular growth at 100 uM after 48 hrs by SRB assay relative to control
RXF 393 [5] = experiment: Cytotoxicity against human RXF393 cells assessed as cellular growth at 1 uM after 48 hrs by SRB assay relative to control
HOP-92 = experiment: Cytotoxicity against human HOP92 cells assessed as cellular growth at 100 uM after 48 hrs by SRB assay relative to control
A498 = experiment: Cytotoxicity against human A498 cells assessed as cellular growth at 10 uM after 48 hrs by SRB assay relative to control
RPMI-8226 = experiment: Cytotoxicity against human RPMI8226 cells assessed as cellular growth at 1 uM after 48 hrs by SRB assay relative to control
CAKI-1 [6] = experiment: Cytotoxicity against human Caki1 cells assessed as cellular growth at 0.01 uM after 48 hrs by SRB assay relative to control
K562 = experiment: Cytotoxicity against human K562 cells assessed as cellular growth at 0.01 uM after 48 hrs by SRB assay relative to control
HCC 2998 [7] = experiment: Cytotoxicity against human HCC2998 cells assessed as cellular growth at 0.1 uM after 48 hrs by SRB assay relative to control
[8] = Cytotoxicity against human EKVX cells assessed as cellular growth at 0.01 uM after 48 hrs by SRB assay relative to control
CCRF-CEM [9] = experiment: Cytotoxicity against human CCRF-CEM cells after 48 hrs by SRB assay
MOLT-4 [10] = experiment: Cytotoxicity against human MOLT4 cells assessed as cellular growth at 0.01 uM after 48 hrs by SRB assay relative to control
ACHN = experiment: Cytotoxicity against human ACHN cells assessed as cellular growth at 100 uM after 48 hrs by SRB assay relative to control
HCC 2998 [11] = experiment: Cytotoxicity against human HCC2998 cells after 48 hrs by SRB assay; conditions: HCC 2998, 48 h
TK-10 = experiment: Cytotoxicity against human TK10 cells assessed as cellular growth at 100 uM after 48 hrs by SRB assay relative to control
CAKI-1 [12] = experiment: Cytotoxicity against human Caki1 cells assessed as cellular growth at 0.1 uM after 48 hrs by SRB assay relative to control
HCC 2998 [13] = experiment: Cytotoxicity against human HCC2998 cells assessed as cellular growth at 100 uM after 48 hrs by SRB assay relative to control
T47D = experiment: Cytotoxicity against human T47D cells assessed as cellular growth at 100 uM after 48 hrs by SRB assay relative to control
NCI-H226 = experiment: Cytotoxicity against human NCI-H226 cells after 48 hrs by SRB assay; conditions: NCI-H226, 48 h
OVCAR-8 = experiment: Cytotoxicity against human OVCAR8 cells assessed as cellular growth at 0.1 uM after 48 hrs by SRB assay relative to control
[14] = read-out: LC50 (the source's name)
[15] = read-out: pLC50 (the source's name) (converted)

SMILES: CN1CCN(CCCn2c3c(sc4ncccc43)c(=O)n3nnc(-c4ccccc4)c23)CC1
- Activity [1]: -43%
- GI50 (SN12C; read-out: GI50): 1.81 µM
- TGI (SN12C; read-out: TGI): 4.07 µM
- GI50 (SN12C; read-out: pGI50 (converted)): 1.82 µM
- TGI (SN12C; read-out: pTGI (converted)): 4.07 µM
- GI50 (MOLT-4 [2]; read-out: GI50): 1.98 µM
- CC50 (MOLT-4 [2]; [14]): 11.5 µM
- TGI (MOLT-4 [2]; read-out: TGI): 4.45 µM
- GI50 (MOLT-4 [2]; read-out: pGI50 (converted)): 2 µM
- CC50 (MOLT-4 [2]; [15]): 11.5 µM
- TGI (MOLT-4 [2]; read-out: pTGI (converted)): 4.47 µM
- Activity (RXF 393 [3]): 93%
- GI50 (OVCAR-4; read-out: GI50): 1.87 µM
- CC50 (OVCAR-4; [14]): 8.04 µM
- TGI (OVCAR-4; read-out: TGI): 3.88 µM
- GI50 (OVCAR-4; read-out: pGI50 (converted)): 1.86 µM
- CC50 (OVCAR-4; [15]): 8.13 µM
- TGI (OVCAR-4; read-out: pTGI (converted)): 3.89 µM
- GI50 (IGROV-1; read-out: GI50): 2 µM
- CC50 (IGROV-1; [14]): 9.78 µM
- TGI (IGROV-1; read-out: TGI): 4.42 µM
- GI50 (IGROV-1; read-out: pGI50 (converted)): 2 µM
- CC50 (IGROV-1; [15]): 9.77 µM
- TGI (IGROV-1; read-out: pTGI (converted)): 4.47 µM
- GI50 (KM12; read-out: GI50): 1.73 µM
- CC50 (KM12; [14]): 6.71 µM
- TGI (KM12; read-out: TGI): 3.41 µM
- GI50 (KM12; read-out: pGI50 (converted)): 1.74 µM
- CC50 (KM12; [15]): 6.76 µM
- TGI (KM12; read-out: pTGI (converted)): 3.39 µM
- Activity (HCT-116): -92.56%
- Activity (CCRF-CEM [4]): 77%
- GI50 (SW-620; read-out: GI50): 1.68 µM
- CC50 (SW-620; [14]): 8.1 µM
- TGI (SW-620; read-out: TGI): 3.69 µM
- GI50 (SW-620; read-out: pGI50 (converted)): 1.7 µM
- CC50 (SW-620; [15]): 8.13 µM
- TGI (SW-620; read-out: pTGI (converted)): 3.72 µM
- GI50 (UACC-257; read-out: GI50): 1.81 µM
- CC50 (UACC-257; [14]): 6.3 µM
- TGI (UACC-257; read-out: TGI): 3.37 µM
- GI50 (UACC-257; read-out: pGI50 (converted)): 1.82 µM
- CC50 (UACC-257; [15]): 6.31 µM
- TGI (UACC-257; read-out: pTGI (converted)): 3.39 µM
- Activity (SK-OV-3): -95%
- Activity (RXF 393 [5]): 93%
- Activity (HOP-92): -67%
- Activity (A498): 57%
- Activity (RPMI-8226): 84%
- Activity (CAKI-1 [6]): 97%
- Activity (K562): 95%
- Activity (HCC 2998 [7]): 99%
- Activity [8]: 98%
- GI50 (CCRF-CEM [9]; read-out: GI50): 1.67 µM
- CC50 (CCRF-CEM [9]; [14]): > 100 µM
- TGI (CCRF-CEM [9]; read-out: TGI): 4.29 µM
- GI50 (CCRF-CEM [9]; read-out: pGI50 (converted)): 1.66 µM
- CC50 (CCRF-CEM [9]; [15]): > 100 µM
- TGI (CCRF-CEM [9]; read-out: pTGI (converted)): 4.27 µM
- Activity (MOLT-4 [10]): 99%
- Activity (ACHN): -80%
- GI50 (HCC 2998 [11]; read-out: GI50): 1.88 µM
- CC50 (HCC 2998 [11]; [14]): 6.39 µM
- TGI (HCC 2998 [11]; read-out: TGI): 3.47 µM
- GI50 (HCC 2998 [11]; read-out: pGI50 (converted)): 1.86 µM
- CC50 (HCC 2998 [11]; [15]): 6.46 µM
- TGI (HCC 2998 [11]; read-out: pTGI (converted)): 3.47 µM
- Activity (TK-10): -47%
- Activity (CAKI-1 [12]): 86%
- Activity (HCC 2998 [13]): -76%
- Activity (T47D): -76%
- GI50 (NCI-H226; read-out: GI50): 13.9 µM
- CC50 (NCI-H226; [14]): 64.2 µM
- TGI (NCI-H226; read-out: TGI): 29.8 µM
- GI50 (NCI-H226; read-out: pGI50 (converted)): 13.8 µM
- CC50 (NCI-H226; [15]): 64.6 µM
- TGI (NCI-H226; read-out: pTGI (converted)): 29.5 µM
- Activity (OVCAR-8): 94%
